Measurements published in patent US20070142449A1, “Angiogenesis inhibitors” (priority 2002, published 2007).
Read-outs that look alike come from different tables or passages of the source.

How the values were obtained:
A549 lung tumor cells = assay: Anti-tumor activity, survival of nude mice with A549 lung tumor cells in the pleural space; type: in vivo; settings: oral 10 mg/kg/day, 10^6 A549 cells in pleural space, FIG. 2
Description: 10^6 A549 lung tumor cells were introduced into the pleural space of nude mice. Compound 1 was administrated to the mice orally (10 mg/kg/day). The survival rates of Compound 1-treated mice and control mice were compared (FIG. 2). The life span (i.e., the medium survival time) of Compound 1-treated mice was about 1.8 times that of control mice, as analyzed by a % T/C value [(median survival time of treatment/median survival time of control)×100].

[1] = system: bFGF-induced cell proliferation of HUVECs; assay: Inhibition of bFGF-induced DNA synthesis ([3H]thymidine incorporation) in HUVECs; type: cell-based; settings: Homo sapiens, HUVEC
Description: (§1) Human umbilical vein endothelial cells (HUVECs) were incubated in the absence of Compound 1 (basal and control) or presence of Compound 1 (with a concentration of […], 0.03 TM, 0.1 TM, 0.3 TM, or 1 TM). Vascular endothelial growth factor (VEGF) or basic fibroblast growth factor (bFGF) was added (except for basal) to induce DNA synthesis, which was detected based on [^3H]thymidine incorporation.

[2] = system: bFGF-induced tube formation of HUVECs; assay: Inhibition of bFGF-induced tube formation of HUVECs on Matrigel; type: cell-based, Human; settings: 10 TM compound, bFGF 10 ng/mL, Matrigel 10 mg/mL
Description: (§2) HUVECs were cultured onto a chamber slide, which was pre-coated with Matrigel (10 mg/mL). Cells were treated without Compound 1 (control) or with Compound 1 (10 TM). VEGF (10 ng/mL) or bFGF (10 ng/mL) was added to induce tube formation. All photos were taken at 100× magnification.

HUVECs = assay: HUVEC growth inhibition assay (crystal violet); type: cell-based; settings: Homo sapiens; for activity at 30 µM: 72 hours; for inhibition at 30 µM: read-out: Inhibition of HUVECs growth compared with the control
Description: These compounds were tested in a growth inhibition assay using HUVECs as follows. 5×10^3 Human umbilical vein endothelial cells (HUVECs) were seeded in two 96-well plates (Clonetic # CC3162). Each well contains 100 μl of endothelial cell basal medium-2. After 24 hr, 100 μl endothelial cell growth medium-2 containing a test compound was added to each well of the two plates. The cells in the first plate were immediately stained with 0.5% crystal violet in 20% methanol for 10 minutes, rinsed with water, and air-dried. The cells in the second plate were incubated for 72 hours at 37° C. and then stained in the same manner. Each well in the first and second plates was eluted with 1:1 ethanol and 0.1 M sodium citrate, and absorbance of the resulting solution was measured at 540 nm with an ELISA reader.
Basal and control experiments were also conducted according to the above procedure, except that 100 μl endothelial basal medium-2 and 100 μl endothelial growth medium-2 were added to the second plates, respectively, instead of endothelial cell growth medium-2 containing a test compound.
HUVECs growth in each well was compared with that of the basal experiment according to the following equation: % basal=(Asecond plate−Afirst plate)/(Asecond plate of basal−Afirst plate of basal)×100%
where Asecond plate is the absorbance of the solution in the second plate; Afirst plate is the absorbance of the solution in the first plate; Asecond plate of basal is the absorbance of the solution in the second plate of the basal; and Afirst plate of basal is the absorbance of the solution in the first plate of the basal.

[3] = system: bFGF-induced angiogenic effect; assay: Matrigel plug angiogenesis in nude mice, bFGF; type: in vivo
Description: (§3) Nude mice were subcutaneously injected with a Matrigel plug containing 150 ng/mL VEGF or bFGF. Vehicle or Compound 1 was administrated to the mice orally (1 mg/kg/day, 3 mg/kg/day, 10 mg/kg/day, 30 mg/kg/day, or 100 mg/kg/day) for seven days. The angiogenic response was monitored visually through the transparent skin. […] The plugs were removed, fixed in 4% formaldehyde, embedded in paraffin, sectioned at 5-Tm thick for histological analysis, and blood vessel growth quantified by hematoxylin-eosin staining. All photos were taken at 40× magnification.
(§4) In a quantitative analysis of angiogenic effect, nude mice were treated as described above, and the plugs were removed and dissolved. Hemoglobin concentrations were measured using a hemoglobin detection kit (Sigma Chem. Co.) as indices of angiogenesis. Means±S.E. (n=3) were presented (see FIG. 1). Symbol “***” represents P<0.001 that are compared with the control.

[4] = system: VEGF-induced angiogenic effect; assay: Matrigel plug angiogenesis in nude mice, VEGF; type: in vivo
Description: as §3, §4

[5] = system: VEGF-induced tube formation of HUVECs; assay: Inhibition of VEGF-induced tube formation of HUVECs on Matrigel; type: cell-based, Human; settings: 10 TM compound, VEGF 10 ng/mL, Matrigel 10 mg/mL
Description: as §2

[6] = system: VEGF-induced cell proliferation of HUVECs; assay: Inhibition of VEGF-induced DNA synthesis ([3H]thymidine incorporation) in HUVECs; type: cell-based; settings: Homo sapiens, HUVEC
Description: as §1

[7] = read-out: HUVEC growth, % of Basal
[8] = read-out: HUVEC growth, % of Control

OCc1ccc(-c2nn(Cc3ccccc3)c3ccccc23)o1 [Compound 1, 1-benzyl-3-(5′-hydroxymethyl-2′-furyl)indazole]
Life span (medium survival time) relative to control mice (A549 lung tumor cells): about 1.8 times that of control mice
IC50 [1]: 140 nM
Inhibition of bFGF-induced formation of networks of elongated endothelial cells [2]: inhibited
activity at 30 µM (HUVECs; [7]): 92.2 ± 1.8%
activity at 30 µM (HUVECs; [8]): 40.6 ± 0.8%
inhibition at 30 µM (HUVECs): 60 to 76%
bFGF-induced angiogenic effect, blood vessel growth in Matrigel plug (histology) ([3]; oral 1-100 mg/kg/day for seven days, plug with 150 ng/mL bFGF): effectively inhibited
bFGF-induced angiogenic effect, hemoglobin concentration of plug ([3]; oral, seven days, n=3, FIG. 1): effectively inhibited
VEGF-induced angiogenic effect, blood vessel growth in Matrigel plug (histology) ([4]; oral 1-100 mg/kg/day for seven days, plug with 150 ng/mL VEGF): effectively inhibited
VEGF-induced angiogenic effect, hemoglobin concentration of plug ([4]; oral, seven days, n=3, FIG. 1): effectively inhibited
Inhibition of VEGF-induced formation of networks of elongated endothelial cells [5]: inhibited
IC50 [6]: 90 nM

COC(=O)c1ccc(-c2n[nH]c3ccccc23)o1 [Compound 2]
activity at 30 µM (HUVECs; [7]): 193 ± 11.1%
activity at 30 µM (HUVECs; [8]): 85 ± 4.9%
inhibition at 30 µM (HUVECs): 15%

OCc1ccc(-c2n[nH]c3ccccc23)o1 [Compound 3]
activity at 30 µM (HUVECs; [7]): 178 ± 14.7%
activity at 30 µM (HUVECs; [8]): 78.4 ± 6.5%
inhibition at 30 µM (HUVECs): 22 to 40%

COC(=O)c1ccc(-c2nn(Cc3ccccc3)c3cc(F)ccc23)o1 [Compound 4]
activity at 30 µM (HUVECs; [7]): 195 ± 6.5%
activity at 30 µM (HUVECs; [8]): 85.9 ± 2.8%
inhibition at 30 µM (HUVECs): 15%

OCc1ccc(-c2nn(Cc3ccccc3)c3cc(F)ccc23)o1 [Compound 6]
activity at 30 µM (HUVECs; [7]): 83.9 ± 4%
activity at 30 µM (HUVECs; [8]): 37 ± 1.8%
inhibition at 30 µM (HUVECs): 60 to 76%

Cc1ccc2c(-c3ccc(CO)o3)nn(Cc3ccccc3)c2c1 [Compound 7]
activity at 30 µM (HUVECs; [7]): 53.9 ± 7.5%
activity at 30 µM (HUVECs; [8]): 23.7 ± 3.3%
inhibition at 30 µM (HUVECs): 60 to 76%

Cc1ccc2c(-c3ccc(C(=O)O)o3)nn(Cc3ccccc3)c2c1 [Compound 8]
activity at 30 µM (HUVECs; [7]): 163 ± 22.1%
activity at 30 µM (HUVECs; [8]): 71.4 ± 9.7%
inhibition at 30 µM (HUVECs): 22 to 40%

O=C(O)c1cccc(-c2nn(Cc3ccccc3)c3ccccc23)c1 [Compound 9]
activity at 30 µM (HUVECs; [7]): 172 ± 14.4%
activity at 30 µM (HUVECs; [8]): 75.8 ± 6.3%
inhibition at 30 µM (HUVECs): 22 to 40%
